The solubility (kinetic) is solubility judged after dilution from a stock solution rather than from solid.

The record followed here is PubChem BioAssay AID1996.

Converted amounts (≈) assume the structure as drawn.

The conditions of the data set: buffer; pH 7.4; 200.0 µM.
Take `O=C1CSC(c2ccccc2)N1CCc1ccccc1` (stereo not drawn): the kinetic solubility stood at 29.6 µg/mL (≈ 104 µM).

`CCCCNC(=O)COC(=O)c1cc(C)oc1C` came in with a kinetic solubility of over 38 µg/mL.

`CCOc1ccccc1C(=O)NC1CCNCC1` returned a kinetic solubility of over 37.2 µg/mL.

Turning to `CC(NC(=O)c1ccncc1)c1ccccc1` (stereo not drawn), the solubility (kinetic) is 26.5 µg/mL (≈ 117 µM).

Compound `CC(=O)c1c(-c2ccc(C)cc2)nc2c3ccccc3ccn12` came in with a solubility (kinetic) of under 0.3 µg/mL.

Compound `Cc1csc(NC(=O)c2cccnc2)n1` displayed a kinetic solubility of 32.5 µg/mL (≈ 148 µM).

`COc1cc(NC(=O)COC(C)=O)cc(OC)c1OC` gave a solubility (kinetic) of 39 µg/mL (≈ 138 µM).

`Nc1cccc(CP(=O)(c2ccccc2)c2ccccc2)c1` gave a solubility (kinetic) of over 46.1 µg/mL.

For the compound `Cc1noc(C)c1-c1nc(CS(=O)(=O)c2ccc(Cl)cc2)no1`, the kinetic solubility is 3.8 µg/mL (≈ 10.7 µM).

`O=C(OCCC1Oc2cccnc2NC1=O)c1ccc(Cl)cc1` (stereo not drawn) displayed a kinetic solubility of 4 µg/mL (≈ 12 µM).

In turn, `O=C(NCCCn1ccnc1)/C(=C/c1cccnc1)NC(=O)c1ccco1` had a kinetic solubility of over 54.8 µg/mL.

As for `Cn1c(O)c(C=Nc2ccccc2)c(=O)n(C)c1=O`, the kinetic solubility was found to be 24 µg/mL (≈ 92.6 µM).

The compound `Cc1ccccc1-n1c(=O)n(CCc2ccccc2)c(=O)c2[nH]cnc21` displayed a kinetic solubility of 10.8 µg/mL (≈ 31.2 µM).

As to `N#Cc1c(-c2ccccc2)cc(-c2ccccc2)nc1SCC(=O)O`, the kinetic solubility was over 52 µg/mL.

As to `CCN1CCN(C(=O)CSc2nc(N)cc(N)n2)CC1`, the solubility (kinetic) was over 44.5 µg/mL.

The compound `CCOc1ccccc1C(=O)NCCCCNC(=O)c1ccccc1OCC` registered a kinetic solubility of 10.2 µg/mL (≈ 26.5 µM).

On to `CCCCCc1c(O)nc(SCCN(C)C)[nH]c1=O.Cl`, for which the kinetic solubility is over 48.3 µg/mL.

`O=C(Nc1ccccc1)C1CC(=O)n2c(nc3ccccc32)N1` (stereo not drawn) displayed a solubility (kinetic) of 0.9 µg/mL (≈ 2.94 µM).

Take `Cc1ccccc1C(=O)NC1CCN(C(=O)NC2CCCCC2)CC1`: the solubility (kinetic) worked out at 6.5 µg/mL (≈ 18.9 µM).

For the compound `CCCn1c2ccccc2c2cnn(CC(=O)NCCN(C)C)c(=O)c21`, the kinetic solubility is over 53.3 µg/mL.

Take `Cc1oc2ccccc2c1CC(=O)NCCCN(C)C`: the solubility (kinetic) was over 41.2 µg/mL.

Compound `CCNc1nc(=S)nc(NCc2ccccc2)[nH]1` had a kinetic solubility of 4.6 µg/mL (≈ 17.6 µM).

As to `COc1ccc(C(=O)O)cc1NCc1ccc(C)s1`, the kinetic solubility is over 41.6 µg/mL.

Compound `CC(C)NC(=O)COc1ccccc1C#N` displayed a kinetic solubility of over 32.7 µg/mL.

In the case of `O=C(/C=C/c1cccc([N+](=O)[O-])c1)OCC(=O)N1CCN(C(=O)c2ccco2)CC1`, the solubility (kinetic) was 30.9 µg/mL (≈ 74.7 µM).

In the case of `Cc1ccccc1NC(=O)COc1cccc2c1CCNC2=O`, the solubility (kinetic) came out at 46.1 µg/mL (≈ 149 µM).

`CCc1noc(C)c1C(=O)OCC(=O)NC(=O)c1ccccc1OC`: the kinetic solubility is 18.6 µg/mL (≈ 53.7 µM).

`O=C(CC1CCCCC1)NCc1ccccc1` gave a kinetic solubility of 30.5 µg/mL (≈ 132 µM).

`C=C(C)Cn1c(N2CCCC2)nc2c1c(=O)n(C)c(=O)n2C` yielded a solubility (kinetic) of 33.6 µg/mL (≈ 111 µM).

Turning to `Fc1ccccc1Oc1nc(-c2ccncc2)nc2ccccc12`, the solubility (kinetic) is under 0.2 µg/mL.

Compound `Cc1cc(C)c[n+](CC(=O)c2ccccc2)c1.[Br-]` returned a solubility (kinetic) of 43.8 µg/mL.

Compound `CSc1nc(C)c(C(=O)C[n+]2ccccc2C)cc1C#N.[Br-]` came in with a solubility (kinetic) of over 56.7 µg/mL.

The compound `O=C(COC(=O)C1=COCCO1)NCc1ccc(F)cc1` came in with a kinetic solubility of 40.3 µg/mL (≈ 136 µM).

In the case of `O=C(O)c1ccc(/C=N/O)cc1`, the kinetic solubility was over 24.8 µg/mL.

In turn, `COC(=O)c1ccccc1NC(=O)NC1CCCCC1` yielded a kinetic solubility of 2.6 µg/mL (≈ 9.41 µM).

`O=C(NCc1cccs1)C1CC(=O)N(Cc2ccccc2)C1` (stereo not drawn) registered a kinetic solubility of over 47.2 µg/mL.

For `CCCCOC(=O)c1ccc(NC(=O)C(=O)NCc2ccco2)cc1`, the solubility (kinetic) is under 0.4 µg/mL.

With `Cn1cc(S(=O)(=O)N2CCOCC2)cc1C(=O)O`, the kinetic solubility was over 41.1 µg/mL.

Turning to `O=C(CNCc1ccccc1)Nc1ccc(Cl)cc1`, the kinetic solubility came to 38.6 µg/mL (≈ 140 µM).

For `O=C(N/N=C/c1ccccn1)c1cccnc1`, the kinetic solubility is over 33.9 µg/mL.

With `CN(CC(=O)Nc1ccc(F)cc1)CC(=O)N1CCc2ccccc21`, the solubility (kinetic) was over 51.2 µg/mL.

As to `O=C1N(c2ccccc2)C[C@@H]2C[C@@H](c3cccs3)N3CCC[C@@]123`, the solubility (kinetic) amounted to 41.8 µg/mL (≈ 129 µM).

Regarding `O=C(c1ccc(N2CCOCC2)c([N+](=O)[O-])c1)N1CCCCC1`, the solubility (kinetic) was over 47.9 µg/mL.

Consider `O=C(CCN1N=C(c2ccccc2)CCC1=O)NC1CCCC1`, for which the kinetic solubility is over 47 µg/mL.

Compound `Cc1sc2ncnc(SCc3ccc(C(=O)O)cc3)c2c1C` had a kinetic solubility of over 49.6 µg/mL.

In turn, `N#CC1(NC(=O)CSc2ccccn2)CCCCC1` gave a solubility (kinetic) of over 41.3 µg/mL.

In turn, `NS(=O)(=O)c1cccc(NC(=O)COC(=O)CSCc2ccccc2)c1` displayed a kinetic solubility of over 59.2 µg/mL.

On to `O=C(Nc1ccccc1N1CCOCC1)c1ccc2c(c1)OCCO2`, for which the kinetic solubility amounted to 5.6 µg/mL (≈ 16.5 µM).

For the compound `COc1cc([N+](=O)[O-])ccc1NC(=O)/C=C/C(=O)O`, the solubility (kinetic) was over 39.9 µg/mL.

Take `Cc1nc(NC(=O)CN2CCOCC2)sc1C(=O)N(C)C`: the kinetic solubility was found to be 40 µg/mL (≈ 128 µM).

As for `O=C(Nc1c(F)cccc1F)C(c1ccccc1)c1ccccc1`, the kinetic solubility was under 0.7 µg/mL.

In the case of `O=C(NC1CCCC1)c1cc(-c2ccccc2Cl)on1`, the solubility (kinetic) worked out at 2.2 µg/mL (≈ 7.57 µM).

The compound `Cn1cccc1C(=O)OCc1nc2ccccc2c(=O)[nH]1` registered a kinetic solubility of 29.6 µg/mL (≈ 104 µM).
